Measurements as given in ChEMBL document CHEMBL1201862, “PubChem BioAssay data set” (2004).
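Exposure lasted 48 hours, with cells grown in 96-well plates and compounds tested at five concentrations. At the GI50, growth is halved.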 Active and inactive are the calls of the source. Rule as the data show it: active = GI50 up to about 1.1 µM and inactive = higher.

Legend:
Assay in all cases: growth of human tumour cells (NCI), 48 h
K562 = tested on: K562
SK-MEL-2 = tested on: SK-MEL-2
CCRF-CEM = tested on: CCRF-CEM
A549 = tested on: A549
HOP-92 = tested on: HOP-92
UO-31 = tested on: UO-31
SNB-19 = tested on: SNB-19
OVCAR-8 = tested on: OVCAR-8
TK-10 = tested on: TK-10
OVCAR-3 = tested on: OVCAR-3
HT-29 = tested on: HT-29
OVCAR-4 = tested on: OVCAR-4
ACHN = tested on: ACHN
HL-60 = tested on: HL-60
NCI-H226 = tested on: NCI-H226
SF-295 = tested on: SF-295

Measured: GI50

O=C(N/C(=C\c1ccc([N+](=O)[O-])cc1)c1nc2ccccc2s1)c1ccccc1
inactive: K562 17.7 µM | SK-MEL-2 23.7 µM | CCRF-CEM 19.1 µM | A549 30.7 µM | HOP-92 23.6 µM | UO-31 24.3 µM | SNB-19 32.8 µM | OVCAR-8 24.6 µM | TK-10 22.6 µM | OVCAR-3 29.3 µM | HT-29 31.6 µM | OVCAR-4 29.9 µM | ACHN 29.2 µM

O=c1ccn(/C=C/C(O)C(O)CO)c(=O)[nH]1 (stereo not drawn)
inactive: K562 > 100 µM | SK-MEL-2 > 100 µM | HL-60 > 100 µM | NCI-H226 > 100 µM | CCRF-CEM > 100 µM | SF-295 > 100 µM | A549 > 100 µM | UO-31 > 100 µM | SNB-19 > 100 µM | OVCAR-8 > 100 µM | TK-10 > 100 µM | OVCAR-3 > 100 µM | HT-29 > 100 µM | OVCAR-4 > 100 µM | ACHN > 100 µM

S=C(N/N=C/c1ccccc1)NC1CC(c2ccccc2)Oc2ccccc21 (stereo not drawn)
inactive: K562 15.2 µM | SK-MEL-2 > 100 µM | NCI-H226 > 100 µM | CCRF-CEM > 10 µM | SF-295 16.1 µM | A549 26.8 µM | HOP-92 2.17 µM | UO-31 > 100 µM | SNB-19 36.5 µM | OVCAR-8 48 µM | TK-10 > 10 µM | OVCAR-3 8.95 µM | HT-29 53 µM | OVCAR-4 16.9 µM | ACHN > 10 µM

Cc1ccc(Cc2c(=O)[nH]nc3ccccc23)cc1
inactive: K562 > 100 µM | SK-MEL-2 > 100 µM | NCI-H226 > 100 µM | CCRF-CEM > 100 µM | SF-295 89.5 µM | A549 > 100 µM | HOP-92 89.7 µM | UO-31 58.3 µM | SNB-19 > 100 µM | OVCAR-8 > 100 µM | TK-10 > 100 µM | OVCAR-3 > 100 µM | HT-29 > 100 µM | OVCAR-4 > 100 µM | ACHN > 100 µM

Cc1nn(-c2ccccc2)c(S)c1C(=O)c1ccccc1
inactive: K562 39.8 µM | SK-MEL-2 > 100 µM | HL-60 32.1 µM | CCRF-CEM 20.5 µM | SF-295 35.2 µM | A549 32.2 µM | UO-31 36 µM | SNB-19 41 µM | OVCAR-8 14.9 µM | TK-10 31.9 µM | HT-29 10 µM | OVCAR-4 40.7 µM | ACHN 39.9 µM

CCC1CC(C)=CCN1S(=O)(=O)c1ccc(C)cc1 (stereo not drawn)
inactive: K562 7.5 µM | SK-MEL-2 11 µM | HL-60 3.61 µM | NCI-H226 28.2 µM | CCRF-CEM 4.9 µM | SF-295 32.7 µM | A549 21.5 µM | UO-31 11.3 µM | SNB-19 28.8 µM | OVCAR-8 36.5 µM | OVCAR-3 17.4 µM | HT-29 20 µM | OVCAR-4 39 µM | ACHN 37 µM

Nc1ccc(CCN2CCN(c3cccc(C(F)(F)F)c3)CC2)cc1
inactive: K562 70.1 µM | HL-60 9.51 µM | NCI-H226 91.4 µM | CCRF-CEM 5.07 µM | SF-295 97.5 µM | A549 > 100 µM | HOP-92 54.8 µM | UO-31 5.74 µM | SNB-19 > 100 µM | OVCAR-8 > 100 µM | TK-10 > 100 µM | OVCAR-3 91.4 µM | HT-29 70 µM | ACHN > 100 µM

Cc1cc2c(C)n(Cc3ccc(Cl)cc3Cl)nc2c(C(=O)O)c1C
inactive: SK-MEL-2 > 100 µM | HL-60 > 100 µM | NCI-H226 > 100 µM | CCRF-CEM > 100 µM | SF-295 > 100 µM | A549 > 100 µM | HOP-92 42.9 µM | UO-31 > 100 µM | SNB-19 > 100 µM | OVCAR-8 > 100 µM | TK-10 > 100 µM | OVCAR-3 > 100 µM | HT-29 > 100 µM | ACHN > 100 µM
